{"source": "paper PMC7906020", "about": "“Trp-Containing Antibacterial Peptides Impair Quorum Sensing and Biofilm Development in Multidrug-Resistant Pseudomonas aeruginosa and Exhibit Synergistic Effects With Antibiotics” (Frontiers in Microbiology, 2021)", "key": {"[1]": {"test_system": "exopolysaccharide production in MRPA0108", "assay": "Exopolysaccharide determination, phenol-H2SO4 method", "format": "cell-based, Pseudomonas aeruginosa", "settings": "phenol-H2SO4, 490 nm", "description": "Exopolysaccharides were determined using the phenol-H2SO4 method. Briefly, after incubation, the cultures were centrifuged at 10,000 rpm for 15 min, and the pellets were resuspended in high-salt buffer (10 mM KPO4, 5 mM NaCl, 2.5 mM MgSO4, pH 7.0), followed by recentrifugation at 10,000 rpm for 30 min. The resulting supernatant was mixed with three volumes of chilled ethanol (100%) and incubated overnight at 4°C. The precipitated exopolysaccharide was added to a mixture containing cold phenol and H2SO4, and the absorbance of the solution was measured at 490 nm. Alginate content was determined using the H2SO4-carbazole method. Briefly, after incubation, the precooled cultures were mixed with an H2SO4 solution (4:1) and vortexed in ice water, and then 0.2% carbazole dissolved in ethanol was added. The mixture was revortexed and incubated at 55°C for 30 min, and the OD 530 nm was measured."}, "MRPA0108 strain": {"test_system": "MRPA0108 strain", "settings": "previous study, ref Han et al., 2020; cited from earlier work", "description": "Supplement Table_1.docx, table 1: Table S1 Biological characteristics and antibacterial activities of the Trp-containing antimicrobial peptides (32) | column: MIC(μM)"}, "[2]": {"test_system": "OprM gene expression in MRPA0108", "assay": "Real-time qPCR of efflux pump gene OprM", "format": "cell-based, Pseudomonas aeruginosa", "settings": "peptide at its MIC (I1W 6.25 μM, L12W 25 μM); Supplementary Figure S2", "description": "Mid-logarithmic (mid-log) growth-phase MRPA0108 cells (1 × 10^8 CFU/ml) were incubated with the different concentrations of peptide at 37°C for 18 h. The bacterial cells were collected by centrifugation at 13,000×g and digested in lysis buffer containing 10 mg/ml lysozyme. Total RNA was isolated by using a TRIzol® Max^TM Kit (Invitrogen, Shanghai, China) according to the manufacturer’s instructions and subsequently reverse transcribed into cDNA using a Prime Script RT Master Mix Kit (Takara, Dalian, China). Real-time PCR was performed in an ABI QuantStudio^TM 5 sequence detection system (Applied Biosystems, United States) using 2 × SYBR Premix Ex Taq II (Solarbio Science and Technology Co., Ltd.). The PCR cycling conditions were as follows: 95°C for 30 s and 40 cycles of 5 s at 95°C, 30 s at 60°C, and 20 s at 72°C. The fold changes calculated according to the comparative cycle threshold (Ct) method were used for quantifying gene expression, normalizing to the expression of the housekeeping gene rpsL. PCR primers, including those for lasA, lasB, rhlA, rhlB, pelA, algD, psl, oprD, oprM, mexA, and mexB, were synthesized by Sangon Biotech (Shanghai, China) and are presented in Supplementary Table S2."}, "[3]": {"test_system": "MRPA0108 biofilm formation", "format": "cell-based, Pseudomonas aeruginosa", "settings": "peptide at 1 × MIC, 24 h, 37°C; crystal violet OD 590 nm; vs control", "description": "The biofilm formation of the MRPA0108 strain was assessed as described previously ([Shang et al., 2017]). Briefly, 50 μl of a mid-log growth-phase bacterial solution (1 × 10^5 CFU/ml) was placed into a 96-well microtiter plate and incubated overnight with 50 μl of peptide at a final concentration of 1/8 × MIC, 1/4 × MIC, 1/2 × MIC, or 1 × MIC. LB liquid medium and erythromycin were used as negative and positive controls, respectively. After 24 h of incubation at 37°C, planktonic bacteria were carefully removed, and the biofilms were fixed with formaldehyde for 15 min and stained with 0.1% (w/v) crystal violet (CV) dye for 5 min. Before being quantified by reading the absorbance at 590 nm in a microtiter plate reader (Varioskan Flash Microplate Reader, Thermo Fisher Scientific Co., Beijing), biofilms were washed and solubilized with 95% ethanol. The OD 590 nm was determined as a measure of biofilm biomass."}, "[4]": {"test_system": "rhamnolipid production in MRPA0108", "assay": "Rhamnolipid production, orcinol method", "format": "cell-based, Pseudomonas aeruginosa", "settings": "peptide at 1/4 × MIC, 24 h, absorbance 420 nm, vs control, triplicate", "description": "The culture supernatant was obtained after centrifugation at 12,000×g for 10 min. (1) LasB elastase activity was measured using elastin-Congo red (ECR) as the substrate, as described by [Pattnaik et al. (2018)]. Briefly, 100 μl of the culture supernatant was added to 900 μl of ECR buffer (100 mM Tris-HCl, 1 mM CaCl2, pH 7.5) containing 10 mg of ECR and then incubated with shaking at 37°C for 18 h. Then, 100 μl of 0.12 M EDTA was added to stop the reaction. The insoluble ECR was removed by centrifugation, and the supernatant absorbance was measured at 495 nm. The optical density (OD) 495 nm/OD 600 nm represents the elastase activity. (2) LasA protease activity was measured as follows ([Pattnaik et al., 2018]): first, the culture supernatant was filtered to remove the bacterial cells, and then 150 μl of sterile-filtered supernatant was added to 2% azocasein (prepared in 50 mM Tris-HCl) and incubated for 4 h at 37°C. Trichloroacetic acid (TCA, 10%) was added to precipitate the undigested substrate. After centrifugation at 10,000 rpm for 10 min, 1 M NaOH was added to the supernatant, and the relative protease activity was measured at OD 440 nm. (3) The pyocyanin assay was based on the absorbance of excreted pyocyanin at 520 nm in an acidic solution ([Kong et al., 2005]). Three milliliters of culture supernatant were mixed with 2 ml of chloroform for 20 min, and then the pyocyanin from the chloroform phase was reextracted using 0.2 M HCl for 15 min to obtain a pink-colored pyocyanin solution. The OD 520 nm was measured to evaluate the change in pyocyanin content. (4) Rhamnolipid detection was carried out as previously described ([Wittgens et al., 2011]). Briefly, 500 μl of culture supernatant was mixed with 500 μl of ethyl acetate and vortexed vigorously for 15 s to extract rhamnolipid. After centrifugation at 10,000×g for 5 min at 4°C, the organic phase containing rhamnolipids was obtained and evaporated at room temperature overnight. The rhamnolipid extract dissolved in ultrapure water was mixed with orcinol reagent (0.19% orcinol in 53% H2SO4) and incubated at 80°C for 30 min. The absorbance was measured at 420 nm. (5) The level of C4-HSL was quantified by GC-MS as previously described ([Guo et al., 2012])."}}, "note": "Peptide text beside a SMILES is read from it.", "data": [{"smiles": "CC[C@H](C)[C@H](NC(=O)[C@H](CCCCN)NC(=O)[C@H](CO)NC(=O)[C@H](CC(C)C)NC(=O)[C@@H](NC(=O)[C@H](CCCCN)NC(=O)[C@H](CCCCN)NC(=O)[C@@H](N)Cc1c[nH]c2ccccc12)[C@@H](C)CC)C(=O)N[C@@H](CCCCN)C(=O)N[C@@H](CCCCN)C(=O)N[C@@H](CC(C)C)C(=O)N[C@@H](CC(C)C)C(=O)N[C@@H](CCCCN)C(N)=O", "note": "[I1W] (H-WKKILSKIKKLLK-NH2; N-terminus and C-terminus assumed)", "values": [{"measurement": "reduction of exopolysaccharide production", "setting": "[1]; peptide at 1/4 × MIC, overnight 37°C", "result": 26.3, "unit": "%"}, {"measurement": "reduction of exopolysaccharide production", "setting": "[1]; peptide at 1 × MIC", "result": 67.3, "unit": "%"}, {"measurement": "reduction of exopolysaccharide production", "setting": "[1]; peptide concentration increased onefold from 1/4 × MIC", "result": 42.6, "unit": "%"}, {"measurement": "MIC", "setting": "MRPA0108 strain", "result": 6.25, "unit": "µM"}, {"measurement": "reduction of OprM gene expression", "setting": "[2]", "result": 22.3, "unit": "%"}, {"measurement": "reduction of biofilm formation", "setting": "[3]", "result": 53, "unit": "%"}, {"measurement": "inhibition of rhamnolipid production", "setting": "[4]", "result": 45.2, "unit": "%"}]}]}
